Source: patent publication US20040072907A1, “Antipicornaviral compounds, compositions containing them, and methods for their use” (priority 1997, published 2004)
Like-named read-outs stand apart in the source and are kept apart here.

Experiments:
HI-HeLa cells = assay: Cytotoxicity in mock-infected HI-HeLa cells (XTT, antirhinoviral assay); type: cell-based
Protocol: (§1) In the Cell Protection Assay, the ability of compounds to protect cells against HRV infection was measured by the XTT dye reduction method. This method is described in Weislow, O. S., Kiser, R., Fine, D. L., Bader, J., Shoemaker, R. H., Boyd, M. R., J. Natl. Cancer Inst. 1989, 81, 577-586, the disclosure of which is incorporated herein by reference.
(§2) Infected or mock-infected cells were resuspended at 8×10^5 cells per mL and incubated with appropriate concentrations of compounds of formula I. Two days later, XTT/PMS was added to test plates, and the amount of formazan produced was quantified spectrophotometrically at 450/650 nm. […] The therapeutic index (TI) was calculated by dividing the CC50 by the EC50.
HRV stocks were propagated, and viral assays were performed in HI-HeLa cells (ATCC). Cells were grown in Minimal Essential Medium, available from Life Technologies, with 10% fetal bovine serum.

HRV serotype-14 = assay: Antirhinoviral HI-HeLa cell culture assay (XTT cell protection), HRV-14; type: cell-based, human rhinovirus; conditions: HRV serotype-14, HI-HeLa cells, m.o.i. 0.13, two days, XTT; read-out: EC50
Protocol: as §1, §2
(§3) All strains of human rhinovirus (HRV) for use in this assay were purchased from American Type Culture Collection (ATCC) except for HRV serotype-14, which was produced from the infectious cDNA clone constructed and supplied to Applicants by Dr. Robert Rueckert at the Institute for Molecular Virology, University of Wisconsin, Madison, Wis. HRV stocks were propagated, and viral assays were performed in HI-HeLa cells (ATCC). Cells were grown in Minimal Essential Medium, available from Life Technologies, with 10% fetal bovine serum.
(§4) The compounds were tested against control compounds WIN 51711, WIN 52084, and WIN 54954, all obtained from Sterling-Winthrop Pharmaceuticals, and control compound Pirodavir, obtained from Janssen Pharmaceuticals. Antiviral data obtained for the test compounds are shown in Table 2 where all data are for HRV serotype-14 unless otherwise noted in parentheses.

[1] = biological target: T1, Recombinant Rhinovirus 3C protease serotype 14 (Human rhinovirus 14, UniProt P03303); assay: biochemical
T1 construct: Recombinant Rhinovirus 3C proteases from serotypes 14, 16, and 2; made in house

[2] = biological target: Recombinant Rhinovirus 3C protease serotype 16 (Human rhinovirus 16, UniProt Q82122); type: biochemical
Protocol: Stock solutions (50 mM, in DMSO) of various compounds were prepared; dilutions were in the same solvent. […] Assays contained 2% DMSO, 50 mM tris pH 7.6, 1 mM EDTA, a compound at the indicated concentrations, approximately 1 μM substrate, and 50-100 nM protease. […] The kobs/I values were obtained from reactions initiated by addition of enzyme rather than substrate. RVP activity is measured in the fluorescence resonance energy transfer assay. […] In the uncleavaed peptide, the EDANS fluorescence was quenched by the proximal DABCYL moiety. When the peptide was cleaved, the quenching was relieved, and activity was measured as an increase in fluorescence signal.
In the above table, all data are for RVP serotype-14 unless otherwise noted in parentheses. All strains of human rhinovirus (HRV) were purchased from American Type Culture Collection (ATCC) except for serotype 14, which was produced from the infectious cDNA clone constructed and supplied to Applicants by Dr. Robert Rueckert at the Institute for Molecular Virology, University of Wisconsin, Madison, Wis. The column designated INHIB represents the percent inhibition at 10 minute preincubation with 50 nM RVP prior to addition of substrate. The data in the column designated kobs/I was measured from progress curves enzyme start experiments.

[3] = biological target: T2, Recombinant Rhinovirus 3C protease serotype 2 (Human rhinovirus 2, UniProt P04936); type: biochemical
T2 construct: Recombinant Rhinovirus 3C proteases from serotypes 14, 16, and 2; made in house

HRV serotype 39 = assay: Antirhinoviral HI-HeLa cell culture assay (XTT cell protection), HRV-39; type: cell-based, human rhinovirus; conditions: HRV serotype 39, HI-HeLa cells
Protocol: as §1, §2, §3, §4

HRV serotype 89 = assay: Antirhinoviral HI-HeLa cell culture assay (XTT cell protection), HRV-89; type: cell-based, human rhinovirus; conditions: HRV serotype 89, HI-HeLa cells
Protocol: as §1, §2, §3, §4

HRV serotype 1A = assay: Antirhinoviral HI-HeLa cell culture assay (XTT cell protection), HRV-1A; type: cell-based, human rhinovirus; conditions: HI-HeLa cells
Protocol: as §1, §2, §3, §4

HRV serotype 10 = assay: Antirhinoviral HI-HeLa cell culture assay (XTT cell protection), HRV-10; type: cell-based, human rhinovirus; conditions: HRV serotype 10, HI-HeLa cells
Protocol: as §1, §2, §3, §4

[4] = mock-infected HI-HeLa cells, line for HRV serotype-14, read-out: CC50
[5] = RVP serotype-14, progress curves, enzyme start experiments
[6] = mock-infected HI-HeLa cells, line for HRV serotype 2, read-out: CC50
[7] = mock-infected HI-HeLa cells, line for HRV serotype 39, read-out: CC50
[8] = mock-infected HI-HeLa cells, line for HRV serotype 1A, read-out: CC50
[9] = mock-infected HI-HeLa cells, line for HRV serotype 10, read-out: CC50
[10] = mock-infected HI-HeLa cells, line for HRV serotype 16, read-out: CC50
[11] = mock-infected HI-HeLa cells, line for HRV serotype 89, read-out: CC50

T1 sequence (P03303 1538-1719): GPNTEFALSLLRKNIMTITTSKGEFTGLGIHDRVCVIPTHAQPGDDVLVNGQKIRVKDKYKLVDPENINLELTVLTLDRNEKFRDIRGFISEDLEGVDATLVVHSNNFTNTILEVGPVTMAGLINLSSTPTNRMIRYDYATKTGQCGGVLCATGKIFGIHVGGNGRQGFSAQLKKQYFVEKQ
Recombinant Rhinovirus 3C protease serotype 16, sequence (Q82122 1511-1693): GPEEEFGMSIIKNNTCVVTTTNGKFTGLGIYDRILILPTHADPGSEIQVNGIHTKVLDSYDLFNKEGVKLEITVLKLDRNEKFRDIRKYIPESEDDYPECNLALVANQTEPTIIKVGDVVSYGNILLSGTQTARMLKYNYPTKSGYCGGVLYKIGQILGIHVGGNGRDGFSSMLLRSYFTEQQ
T2 sequence (P04936 1508-1690): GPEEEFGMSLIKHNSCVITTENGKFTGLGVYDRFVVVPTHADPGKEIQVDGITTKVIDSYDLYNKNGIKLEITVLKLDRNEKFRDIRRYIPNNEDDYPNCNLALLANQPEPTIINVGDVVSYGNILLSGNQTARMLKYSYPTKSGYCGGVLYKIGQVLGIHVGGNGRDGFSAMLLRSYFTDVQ

Cc1cc(CCCCCCCOc2ccc(C3=NCCO3)cc2)on1 [WIN 51711, reference compound]
CC50 (HI-HeLa cells; [4]): > 60000 nM | EC50 (HRV serotype-14): 780 nM

CCOC(=O)/C=C/C(CCC(N)=O)NC(=O)C(CC(=O)C(Cc1ccccc1)NC(=O)SC1CCCC1)Cc1ccc(C)cc1 [Compound 12, Ethyl-3-(CyPentylSCO-L-PheΨ[COCH2]-L-(p-CH3)Phe-L-Gln)-E-Propenoate]
CC50 (HI-HeLa cells; [4]): > 1000 nM | EC50 (HRV serotype-14): 140 nM | kobs/I [1, 5]: 404,000 M^−1sec^−1

CCOC(=O)/C=C/C(CCC(N)=O)NC(=O)C(CC(=O)C(NC(=O)SCc1ccccc1)C(C)C)Cc1ccccc1 [Compound 5, Ethyl-3-(BnSCO-L-ValΨ[COCH2]-L-Phe-L-Gln)-E-Propenoate]
kobs/I [2]: 89,700 M^−1sec^−1 | kobs/I [1]: 500,000 M^−1sec^−1 | kobs/I [3]: 26,900 M^−1sec^−1

CCOC(=O)/C=C/[C@H](CCC(N)=O)NC(=O)[C@@H](CC(=O)[C@H](CC(C)C)NC(=O)SC1CCCC1)Cc1ccccc1 [Compound 8, Ethyl-3-(CyPentylSCO-L-LeuΨ[COCH2]-L-Phe-L-Gln)-E-Propenoate]
kobs/I [2]: 14,200 M^−1sec^−1 | kobs/I [1]: 55,700 M^−1sec^−1 | kobs/I [3]: 7,000 M^−1sec^−1 | kobs/I ([3]; RVP serotype 2, progress curves, enzyme start experiments): 7,000 M^−1sec^−1

CCOC(=O)/C=C/C(CCC(N)=O)NC(=O)C(CC(=O)C(CC(C)C)NC(=O)SCc1ccccc1)Cc1ccccc1 [Compound 6, Ethyl-3-(BnSCO-L-LeuΨ[COCH2]-L-Phe-L-Gln)-E-Propenoate]
kobs/I [2]: 23,230 M^−1sec^−1 | kobs/I [1]: 87,600 M^−1sec^−1 | kobs/I [3]: 13,350 M^−1sec^−1

CC(=O)N1CC/C(=C\C(CCC(N)=O)NC(=O)C(CC(=O)C(NC(=O)SC2CCCC2)C(C)C)Cc2ccc(C)cc2)C1=O [Compound 17, [CyPentylSCO-L-ValΨ[COCH2]-L-(p-CH3)Phe-L-Gln]-E-1-Acetyl-3-methylene-pyrrolidin-2-one]
CC50 (HI-HeLa cells; [6]): > 10000 nM | CC50 (HI-HeLa cells; [7]): > 10000 nM | CC50 (HI-HeLa cells; [4]): > 10000 nM | EC50 (HRV serotype-14): 27 nM | EC50 (HRV serotype 39): 480 nM

CCOC(=O)/C=C/[C@H](CCC(N)=O)NC(=O)[C@@H](CC(=O)[C@@H](NC(=O)SCC)C(C)C)Cc1ccc(C(F)(F)F)cc1 [Compound 15, Ethyl-3-(EtSCO-L-ValΨ[COCH2]-L-(p-CF3)Phe-L-Gln)-E-Propenoate]
CC50 (HI-HeLa cells; [4]): > 1000 nM | EC50 (HRV serotype-14): 63 nM | kobs/I [1, 5]: 127,000 M^−1sec^−1

CCOC(=O)/C=C/[C@H](CCC(N)=O)NC(=O)[C@@H](CC(=O)[C@@H](NC(=O)SCC)C(C)C)Cc1ccc(F)cc1 [Compound 13, Ethyl-3-(EtSCO-L-ValΨ[COCH2]-L-(p-F)Phe-L-Gln)-E-Propenoate]
CC50 (HI-HeLa cells; [4]): > 3000 nM

CCOC(=O)/C=C/C(CCC(N)=O)NC(=O)C(CC(=O)C(NC(=O)SC1CCCC1)C(C)C)Cc1ccc(F)cc1 (centres unmarked) [Compound 14]
CC50 (HI-HeLa cells; [8]): > 10000 nM | CC50 (HI-HeLa cells; [6]): > 10000 nM | CC50 (HI-HeLa cells; [9]): > 10000 nM | CC50 (HI-HeLa cells; [10]): > 10000 nM | CC50 (HI-HeLa cells; [7]): > 10000 nM | CC50 (HI-HeLa cells; [11]): > 10000 nM | CC50 (HI-HeLa cells; [4]): > 10000 nM | EC50 (HRV serotype-14): 20 nM | EC50 (HRV serotype 89): 80 nM | EC50 (HRV serotype 1A): 170 nM

Cc1cc(CCCCCCCOc2ccc(C3=N[C@@H](C)CO3)cc2)on1 [WIN 52084, reference compound]
CC50 (HI-HeLa cells; [4]): > 10000 nM | EC50 (HRV serotype-14): 70 nM

CCOC(=O)/C=C/C(CCC(N)=O)NC(=O)C(CC(=O)C(NC(=O)CC1CCCC1)C(C)C)Cc1ccc(C)cc1 (centres unmarked) [Compound 23]
CC50 (HI-HeLa cells): > 10000 nM | EC50 (HRV serotype-14): 20900 nM | kobs/I [1, 5]: 36,500 M^−1sec^−1

CCOC(=O)/C=C/[C@H](CCC(N)=O)NC(=O)[C@@H](CC(=O)[C@@H](NC(=O)SCC)C(C)C)Cc1ccccc1 [Compound 4, Ethyl-3-(EtSCO-L-ValΨ[COCH2]-L-Phe-L-Gln)-E-Propenoate]
CC50 (HI-HeLa cells; [4]): > 320000 nM | kobs/I [2]: 34,600 M^−1sec^−1 | kobs/I [1]: 180,000 M^−1sec^−1 | kobs/I [3]: 17,800 M^−1sec^−1

Ethyl-3-(CyPentylSCO-L-CyhexΨ[COCH2]-L-(p-F)Phe-L-Gln)-E-Propenoate [Compound 24]
CC50 (HI-HeLa cells; [4]): > 3000 nM

CCOC(=O)/C=C/[C@H](CCC(N)=O)NC(=O)[C@@H](CC(=O)[C@@H](NC(=O)SCC)C(C)C)Cc1ccc(C)cc1 [Compound 10, Ethyl-3-(EtSCO-L-ValΨ[COCH2]-L-(p-CH3)Phe-L-Gln)-E-Propenoate]
CC50 (HI-HeLa cells; [6]): > 1000 nM | kobs/I [1]: 440,000 M^−1sec^−1

CCOC(=O)/C=C/C(CCC(N)=O)NC(=O)C(CC(=O)C(CC(C)C)NC(=O)OCc1ccccc1)Cc1ccccc1 [Compound 1, Ethyl-3-(CBZ-L-LeuΨ[COCH2]-L-Phe-L-Gln)-E-Propenoate]
CC50 (HI-HeLa cells; [4]): > 320000 nM

CCOC(=O)/C=C/C(CCC(N)=O)NC(=O)C(CC(=O)C(Cc1ccccc1)NC(=O)SC1CCCC1)Cc1ccc(F)cc1 [Compound 18, Ethyl-3-(CyPentylSCO-L-PheΨ[COCH2]-L-(p-F)Phe-L-Gln)-E-Propenoate]
CC50 (HI-HeLa cells; [4]): > 3000 nM | EC50 (HRV serotype-14): 480 nM | kobs/I [1, 5]: 127,400 M^−1sec^−1

CCOC(=O)/C=C/[C@H](CCC(N)=O)NC(=O)[C@@H](CC(=O)[C@H](CC(C)C)NC(=O)SCC)Cc1ccccc1 [Compound 2, Ethyl-3-(EtSCO-L-LeuΨ[COCH2]-L-Phe-L-Gln)-E-Propenoate]
CC50 (HI-HeLa cells; [6]): > 320000 nM | kobs/I [2]: 10,410 M^−1sec^−1 | kobs/I [1]: 47,000 M^−1sec^−1 | kobs/I [3]: 4,600 M^−1sec^−1

CCOC(=O)/C=C/C(CCC(N)=O)NC(=O)C(CC(=O)C(NC(=O)SC1CCCC1)C(C)C)Cc1ccc(C)cc1 [Compound 11, Ethyl-3-(CyPentylSCO-L-ValΨ[COCH2]-L-(p-CH3)Phe-L-Gln)-E-Propenoate]
CC50 (HI-HeLa cells; [8]): > 3000 nM | CC50 (HI-HeLa cells; [6]): > 3000 nM | CC50 (HI-HeLa cells; [9]): > 3000 nM | CC50 (HI-HeLa cells; [10]): > 3000 nM | CC50 (HI-HeLa cells; [7]): > 3000 nM | kobs/I [1]: 850,000 M^−1sec^−1

CCOC(=O)/C=C/C(CCC(N)=O)NC(=O)C(CC(=O)C(NC(=O)SC1CCCC1)C(C)C)Cc1ccc(C(F)(F)F)cc1 [Compound 16, Ethyl-3-(CyPentylSCO-L-ValΨ[COCH2]-L-(p-CF3)Phe-L-Gln)-E-Propenoate]
CC50 (HI-HeLa cells; [8]): > 3000 nM | CC50 (HI-HeLa cells; [6]): > 3000 nM | CC50 (HI-HeLa cells; [9]): > 3000 nM | CC50 (HI-HeLa cells; [10]): > 3000 nM | CC50 (HI-HeLa cells; [7]): > 3000 nM | CC50 (HI-HeLa cells; [11]): > 3000 nM | CC50 (HI-HeLa cells; [4]): > 3000 nM | EC50 (HRV serotype-14): 50 nM | EC50 (HRV serotype 39): 200 nM | EC50 (HRV serotype 89): 80 nM | EC50 (HRV serotype 10): 150 nM
